Reference: publication PMC10584170, “Machine learning-based phenotypic imaging to characterise the targetable biology of Plasmodium falciparum male gametocytes for the development of transmission-blocking antimalarials” (PLOS Pathogens, 2023)
Where two headings read alike, the source gives them in different places.

Assays:
[1] = tested on: P. falciparum female gametocytes; assay: P. falciparum Dual Gamete Formation Assay (PfDGFA), female readout (Pfs25-positive female gametes); format: cell-based, Plasmodium falciparum NF54; conditions: for Selectivity ratio F: HepG2 Tox50 versus female IC50; for IC50: PfDGFA, 24 h incubation with gametocytes before induction, female gamete readout, read-out: Female IC50; for HitlevelF: number of replicates with >50% inhibition in the female readout
Method in brief: (§1)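 NF54 mature gametocytes (d14), cpd 24 h 37°C hypoxic gas; trigger: xanthurenic acid ookinete medium + Cy3 anti-Pfs25, 4°C 4 min → 28°C 4 min. Male: exflagellation centres, brightfield x6. Female: Pfs25+ gametes, fluorescence, +24 h 28°C dark.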

HepG2 cells = assay: HepG2 cytotoxicity counter-screen
[2] = tested on: P. falciparum male gametocytes; assay: P. falciparum Dual Gamete Formation Assay (PfDGFA), male readout (exflagellation); format: cell-based, Plasmodium falciparum NF54; conditions: for Selectivity Ratio M: HepG2 Tox50 versus male IC50; for IC50: PfDGFA, 24 h incubation with gametocytes before induction, exflagellation readout, read-out: Male IC50; for HitlevelM: number of replicates with >50% inhibition in the male readout
Method in brief: as §1

[3] = 2µM, 24h preincubation with gametocytes, average of replicates
[4] = 2µM, 24h preincubation with gametocytes, replicate R1
[5] = 2µM, 24h preincubation with gametocytes, replicate R3
[6] = 2µM, 24h preincubation with gametocytes, replicate R4
[7] = cytotoxic activity against HepG2 cells
[8] = PfDGFA at 2µM, 24h preincubation with gametocytes, average of replicates
[9] = PfDGFA at 2µM, 24h preincubation with gametocytes, replicate R1
[10] = PfDGFA at 2µM, 24h preincubation with gametocytes, replicate R3
[11] = PfDGFA at 2µM, 24h preincubation with gametocytes, replicate R4
[12] = 2µM, 24h preincubation with gametocytes prior to induction of gametogenesis, average of replicates
[13] = 2µM, 24h preincubation with gametocytes prior to induction of gametogenesis, replicate R1
[14] = 2µM, 24h preincubation with gametocytes prior to induction of gametogenesis, replicate R3
[15] = 2µM, 24h preincubation with gametocytes prior to induction of gametogenesis, replicate R4

| Structure (SMILES) | Average inhibition female (%) [1, 3] | % inhibition female (individual replicates) R1 [1, 4] | % inhibition female (individual replicates) R3 [1, 5] | % inhibition female (individual replicates) R4 [1, 6] | Selectivity ratio F [1] | IC50 [1] | Tox50 (HepG2 cells; [7]) | Average inhibition male (%) [2, 3] | % inhibition male (individual replicates) R1 [2, 4] | % inhibition male (individual replicates) R4 [2, 6] | Selectivity Ratio M [2] | IC50 [2] | Average inhibition female (%) [1, 8] | % inhibition female (individual replicates) R1 [1, 9] | % inhibition female (individual replicates) R3 [1, 10] | % inhibition female (individual replicates) R4 [1, 11] | HitlevelF ([1]; 2µM) | Average inhibition male (%) [2, 8] | % inhibition male (individual replicates) R1 [2, 9] | % inhibition male (individual replicates) R3 [2, 10] | further results |
| --- | --- | --- | --- | --- | --- | --- | --- | --- | --- | --- | --- | --- | --- | --- | --- | --- | --- | --- | --- | --- | --- |
| CCCC(N)C(=O)NC1CCN(c2c(F)c(N)c3c(=O)c(C(=O)O)cn4c3c2Oc2ccccc2-4)C1.Cl (stereo not shown) [TCMDC-125701] | 53.0% | 43.9% | 47.1% | 70.9% | 0.68 | 4430 nM | 2.99 µM | 89.8% | 87.0% | 95.7% | 2.29 | 1310 nM | – | – | – | – | – | – | – | – | % inhibition male (individual replicates) R3 [2, 5]: 88.1% |
| S=C(NN=Cc1ccccn1)NC1CC2C=CC1C2 (stereo not shown) [TCMDC-125752] | 59.8% | 34.4% | 45.5% | 74.2% | 0.3 | 480 nM | 0.14 µM | 101.0% | 99.9% | 102.9% | 0.29 | 500 nM | – | – | – | – | – | – | – | – | % inhibition male (individual replicates) R3 [2, 5]: 101.6% |
| CCC1CN2CCc3cc(OC)c(OC)cc3C2CC1CC1NCCc2cc(OC)c(OC)cc21.Cl (stereo not shown) [TCMDC-125849] | – | – | – | – | – | – | 27.47 µM | – | – | – | – | – | – | – | – | – | – | – | – | – | HitlevelF ([1]; 2µM, 24h preincubation): 4; times more potent against females than males ([1]; PfDGFA female versus male gametocytes): 4.7; inhibition at 2 µM ([1]; Plasmodium falciparum, 2µM, 24h preincubation with gametocytes prior to induction of gametogenesis, average of replicates, read-out: Average inhibition female (%)): 93.3%; inhibition at 2 µM ([1]; Plasmodium falciparum, 2µM, 24h preincubation with gametocytes prior to induction of gametogenesis, replicate R1, read-out: % inhibition female (individual replicates) R1): 91%; inhibition at 2 µM ([1]; Plasmodium falciparum, 2µM, 24h preincubation with gametocytes prior to induction of gametogenesis, replicate R2, read-out: % inhibition female (individual replicates) R2): 79%; inhibition at 2 µM ([1]; Plasmodium falciparum, 2µM, 24h preincubation with gametocytes prior to induction of gametogenesis, replicate R3, read-out: % inhibition female (individual replicates) R3): 103%; inhibition at 2 µM ([1]; Plasmodium falciparum, 2µM, 24h preincubation with gametocytes prior to induction of gametogenesis, replicate R4, read-out: % inhibition female (individual replicates) R4): 100%; IC50 ([1]; Plasmodium falciparum): 750 nM; HitlevelM ([2]; 2µM, 24h preincubation): 2; inhibition at 2 µM ([2]; Plasmodium falciparum, 2µM, 24h preincubation with gametocytes prior to induction of gametogenesis, average of replicates, read-out: Average inhibition male (%)): 47.7%; inhibition at 2 µM ([2]; Plasmodium falciparum, 2µM, 24h preincubation with gametocytes prior to induction of gametogenesis, replicate R1, read-out: % inhibition male (individual replicates) R1): 38.6%; inhibition at 2 µM ([2]; Plasmodium falciparum, 2µM, 24h preincubation with gametocytes prior to induction of gametogenesis, replicate R2, read-out: % inhibition male (individual replicates) R2): 27.6%; inhibition at 2 µM ([2]; Plasmodium falciparum, 2µM, 24h preincubation with gametocytes prior to induction of gametogenesis, replicate R3, read-out: % inhibition male (individual replicates) R3): 59.3%; inhibition at 2 µM ([2]; Plasmodium falciparum, 2µM, 24h preincubation with gametocytes prior to induction of gametogenesis, replicate R4, read-out: % inhibition male (individual replicates) R4): 65.1%; IC50 ([2]; Plasmodium falciparum): 3530 nM |
| COc1ccc(CCNCCCCCCNCCc2ccc(Cl)c3ccccc23)cc1OC.Cl [TCMDC-131270] | 44.5% | 48.1% | 32.3% | 35.6% | 0.76 | 5300 nM | 4.03 µM | 92.0% | 90.1% | 89.1% | 2.16 | 1870 nM | – | – | – | – | – | – | – | – | – |
| COc1ccc(CCNCCCCCCNCCc2ccc(Cl)cc2)c(Cl)c1OC.Cl [TCMDC-131272] | – | – | – | – | 1.14 | 4350 nM | 4.93 µM | – | – | – | 2.8 | 1760 nM | 29.4% | 25.7% | -3.5% | 29.5% | 1 | 69.3% | 64.8% | 45.7% | % inhibition male (individual replicates) R4 [2, 11]: 90.2%; HitlevelM ([2]; 2µM): 3 |
| C[C@H](Cc1ccc(Oc2ccc(C[C@@H](C)NC[C@H](O)c3cccc(Cl)c3)cc2)cc1)NC[C@H](O)c1cccc(Cl)c1.Cl [TCMDC-131560] | – | – | – | – | 1.25 | 2460 nM | 3.07 µM | – | – | – | 2.05 | 1500 nM | 43.2% | 35.8% | 26.6% | 73.1% | 1 | 76.2% | 79.7% | 57.0% | % inhibition male (individual replicates) R4 [2, 11]: 91.6%; HitlevelM ([2]; 2µM): 4 |
| C[C@H](Cc1ccc(OCCCCCOc2ccc(C[C@@H](C)NC[C@H](O)c3cccc(Cl)c3)cc2)cc1)NC[C@H](O)c1cccc(Cl)c1.Cl [TCMDC-131563] | – | – | – | – | 1.3 | 2490 nM | 3.24 µM | – | – | – | 2.4 | 1350 nM | 27.5% | 37.3% | 14.2% | 41.5% | 0 | 65.6% | 66.8% | 65.3% | % inhibition male (individual replicates) R4 [2, 11]: 85.7%; HitlevelM ([2]; 2µM): 3 |
| CC[C@H]1CN2CCc3cc(OC)c(OC)cc3[C@@H]2C[C@@H]1C[C@H]1NCCc2c1cc(OC)c(O)c2Cl [TCMDC-131802] | – | – | – | – | – | 640 nM | – | – | – | – | – | 1910 nM | – | – | – | – | – | – | – | – | Average inhibition female (%) [1, 12]: 66.5%; % inhibition female (individual replicates) R1 [1, 13]: 51.1%; % inhibition female (individual replicates) R3 [1, 14]: 66.5%; % inhibition female (individual replicates) R4 [1, 15]: 85.4%; HitlevelF ([1]; 2µM, 24h preincubation): 4; Tox50 (HepG2 cells): 1.67 µM; Average inhibition male (%) [2, 12]: 54.2%; % inhibition male (individual replicates) R1 [2, 13]: 49.4%; % inhibition male (individual replicates) R3 [2, 14]: 27.8%; % inhibition male (individual replicates) R4 [2, 15]: 72.9%; HitlevelM ([2]; 2µM, 24h preincubation): 2 |
